Source: article PMC4389562, “Antigiardial activity of novel triazolyl-quinolone-based chalcone derivatives: when oxygen makes the difference” (Frontiers in Microbiology, 2015)
Like-named read-outs stand apart in the source and are kept apart here.

Experiments:
[1] = system: Giardia intestinalis trophozoites; experiment: Drug susceptibility of Giardia trophozoites, ATP level by luminescence (BacTiter-Glo), 48 h incubation, anaerobic or microaerobic; type: cell-based, Giardia intestinalis strain WB clone C6; conditions: for IC50: Giardia duodenalis, 48 h, 37 °C, ATP level; for selectivity ratio at 48 h: human (Caco-2 cells) versus Giardia intestinalis, Caco-2, SI = IC50,Caco-2/IC50,Giardia; for fold more efficient than MTZ against Giardia: anaerobic conditions, relative to MTZ
Method: Trophozoites of G. intestinalis strain WB clone C6 (ATCC No. 50803TM) were cultured axenically at 37^∘C in 25-cm^2 flasks containing Diamond's TYI-S-33 medium supplemented with 10% bovine calf serum, 1 mg/mL bovine bile, 0.1 g/L streptomycin and 100 U/mL penicillin. Typically, 50 ml medium was inoculated with 25 × 10^6 cells and after 2 days cells were harvested by chilling the flasks on ice for 30 min for drug susceptibility assays. […] The assays were performed following the procedure described in [Bahadur et al. (2014)], using sterile 96-well white clear-bottom plates. […] Each drug concentration was tested in at least six replicates. MTZ was used as an internal positive control in the assay. The microtiter plates were then incubated at 37^∘C under anaerobic or microaerobic conditions, ensured by the Anaerocult® A or the Anaerocult® […] (Merck), respectively. […] Following 48 h incubation with the compound to be tested, 100 μL of the BacTiter-Glo^TM Microbial Cell Viability Assay System reagent (Promega) was added to each well for one-step lysis and ATP level detection. Plates were then incubated at room temperature for 15 min and ATP levels finally detected by luminescence on a plate reader (Wallac Victor3 1420 Multilabel Counter, PerkinElmer). Luminometric data were calibrated using ATP standard curves and normalized to the ATP level measured in control DMSO-treated cells (taken as 100%). The measured ATP level percentage was plotted as a function of the compound concentration and the half-maximal inhibitory concentration (IC50) was obtained by fitting the resulting titration profile to the Hill equation ([Goutelle et al., 2008]). The selectivity index (SI) of the compounds was then calculated as the ratio between the IC50 value measured on human cells over the value determined on Giardia trophozoites (SI = IC50,Caco-2/IC50,Giardia). The antigiardial activity of the novel compounds 23-67 was tested under both anaerobic and microaerobic conditions. According to ([Dunn et al., 2010]; [Bahadur et al., 2014]), susceptibility of Giardia trophozoites to increasing concentrations of each compound was assessed based on ATP level determination by luminescence. Dose-response curves for each compound were obtained after 48 h-incubation and compared to the data collected under identical conditions with MTZ, the drug of choice for treatment of giardiasis. […] Typical dose-response curves are shown in Figure 2, whereas the IC50 values measured for the synthetic compounds and MTZ under anaerobic and microaerobic conditions are reported in Table 1. […] Under anaerobic conditions, 18 out of the 45 synthetic compounds were as effective as MTZ or more under identical conditions (see Table 1).

Caco-2 cells = experiment: Counter-screen on Caco-2 cells, ATP level by luminescence (ATPlite), 48 h incubation; type: cell-based, human; conditions: Homo sapiens, Caco-2, 48 h, atmospheric O2, 5% CO2, 48 h, 37 °C
Method: Trophozoites of G. intestinalis strain WB clone C6 (ATCC No. 50803TM) were cultured axenically at 37^∘C in 25-cm^2 flasks containing Diamond’s TYI-S-33 medium supplemented with 10% bovine calf serum, 1 mg/mL bovine bile, 0.1 g/L streptomycin and 100 U/mL penicillin. […] Human epithelial colorectal adenocarcinoma (Caco-2) cells were grown in 25-cm^2 flasks in EMEM supplemented with 1% (v/v) non-essential amino acids, 2 mM glutamine, 5% (v/v) fetal bovine serum, 0.1 g/L streptomycin, and 100 U/mL penicillin.
Cells were detached with 0.5% trypsin-EDTA and seeded in sterile 96-well white clear-bottom plates at the same density of Giardia trophozoites and at increasing concentration of the compound to be tested, as described above. The assays were carried out exactly as reported for the Giardia trophozoites, except that the plates were incubated (still at 37^∘C) at atmospheric O2 level, 5% CO2, and 95% humidity. Each drug concentration was tested in at least seven replicates. MTZ was used as an internal […] control in the assay. Following 48 h incubation with each compound, according to the manufacturer instructions, 100 μL of the ATPlite^TM luminescence assay system (Perkin Elmer) was added to each well for one-step lysis and ATP level detection by luminescence.
Luminometric data were calibrated using ATP standard curves and normalized to the ATP level measured in control DMSO-treated cells (taken as 100%). The measured ATP level percentage was plotted as a function of the compound concentration and the half-maximal inhibitory concentration (IC50) was obtained by fitting the resulting titration profile to the Hill equation ([Goutelle et al., 2008]). The selectivity index (SI) of the compounds was then calculated as the ratio between the IC50 value measured on human cells over the value determined on Giardia trophozoites (SI = IC50,Caco-2/IC50,Giardia).
Selectivity of the newly synthesized compounds toward Giardia was assessed by running a counter-screen on human epithelial Caco-2 cells. […] This allowed us to calculate the compounds SI, defined as the ratio between the IC50 value measured on human cells over the value determined on Giardia trophozoites.

[2] = anaerobic conditions (Anaerocult A), read-out: Giardia (anaerobiosis) IC50
[3] = microaerobic conditions (~5% O2, Anaerocult C), read-out: Giardia (microaerobiosis) IC50
[4] = Giardia under anaerobiosis, read-out: Selectivity (IC50,Caco/IC50,Giardia) Anaerobiosis
[5] = Giardia under microaerobiosis, read-out: Selectivity (IC50,Caco/IC50,Giardia) Microaerobiosis

melting point	Structure (SMILES)	IC50 [1, 2]	IC50 [1, 3]	selectivity ratio at 48 h [1, 4]	selectivity ratio at 48 h [1, 5]	IC50 (Caco-2 cells)	fold more efficient than MTZ against Giardia [1]
202 to 204 °C	Cc1ccc(C(=O)/C=C/c2cc3ccccc3n(Cc3cn(-c4ccc(C)cc4)nn3)c2=O)cc1 [Compound 37]	6.3 µM	1.6 µM	≥ 7	≥ 31	≥ 50 µM	
182 to 184 °C	COc1ccc(C(=O)/C=C/c2cc3ccccc3n(Cc3cn(-c4ccc(C)cc4)nn3)c2=O)cc1 [Compound 40]	≥ 15 µM	2.4 µM		≥ 25	≥ 60 µM	
216 to 218 °C	O=C(/C=C/c1cc2ccccc2n(Cc2cn(-c3ccc(Cl)cc3)nn2)c1=O)c1ccc(F)cc1 [Compound 52]	8.9 µM	1.2 µM	2.7	19.9	23.9 µM	
180 to 182 °C	O=C(/C=C/c1cc2ccccc2n(Cc2cn(-c3ccc(Cl)cc3)nn2)c1=O)c1ccc(Cl)cc1 [Compound 53]	9 µM	1.1 µM	≥ 3	≥ 27	≥ 30 µM	
217 to 219 °C	Cc1ccc(C(=O)/C=C/c2cc3ccccc3n(Cc3cn(-c4ccc(Cl)cc4)nn3)c2=O)cc1 [Compound 55]	8.7 µM	1.1 µM	2.3	18.2	20 µM	
172 to 174 °C	O=C(/C=C/c1cc2ccccc2n(Cc2cn(-c3ccccc3)nn2)c1=O)c1ccccc1F [Compound 59]	1.9 µM	0.4 µM	5.9	28	11.2 µM	
180 to 182 °C	O=C(/C=C/c1cc2ccccc2n(Cc2cn(-c3ccccc3)nn2)c1=O)c1cccc(F)c1 [Compound 60]	3.5 µM	0.7 µM	≥ 14	≥ 71	≥ 50 µM	
202 to 204 °C	O=C(/C=C/c1cc2ccccc2n(Cc2cn(-c3ccccc3)nn2)c1=O)c1ccc(F)cc1 [Compound 61]	5.3 µM	0.8 µM	3.4	22.8	18.2 µM	
216 to 218 °C	O=C(/C=C/c1cc2ccccc2n(Cc2cn(-c3ccccc3)nn2)c1=O)c1ccc(Cl)cc1 [Compound 62]	2.1 µM	0.7 µM	2.8	8.4	5.9 µM	
216 to 218 °C	Cc1ccc(C(=O)/C=C/c2cc3ccccc3n(Cc3cn(-c4ccccc4)nn3)c2=O)cc1 [Compound 64]	2.8 µM	0.5 µM	6.4	35.6	17.8 µM	

The next lines start with the compound.

Structure (SMILES)	melting point	IC50 [1, 2]	IC50 [1, 3]	selectivity ratio at 48 h [1, 4]	selectivity ratio at 48 h [1, 5]	IC50 (Caco-2 cells)	fold more efficient than MTZ against Giardia [1]
O=C(/C=C/c1cc2ccccc2n(Cc2cn(-c3ccc(F)cc3)nn2)c1=O)c1cccc(F)c1 [Compound 42]	203 to 205 °C	3.3 µM	0.7 µM	2.9	13.7	9.6 µM	
O=C(/C=C/c1cc2ccccc2n(Cc2cn(-c3ccc(F)cc3)nn2)c1=O)c1ccc(F)cc1 [Compound 43]	202 to 204 °C	1.2 µM	0.3 µM	5.8	23.3	7 µM	three to fourfold
O=C(/C=C/c1cc2ccccc2n(Cc2cn(-c3ccc(F)cc3)nn2)c1=O)c1ccc(Cl)cc1 [Compound 44]	190 to 192 °C	1.5 µM	1 µM	4.8	7.2	7.2 µM	
O=C(/C=C/c1cc2ccccc2n(Cc2cn(-c3ccc(F)cc3)nn2)c1=O)c1ccc(Br)cc1 [Compound 45]	238 to 240 °C	1.1 µM	0.5 µM	15.2	33.4	16.7 µM	three to fourfold
COc1ccccc1C(=O)/C=C/c1cc2ccccc2n(Cc2cn(-c3ccc(F)cc3)nn2)c1=O [Compound 47]	132 to 134 °C	2.7 µM	0.3 µM	≥ 7	≥ 66	≥ 20 µM	
COc1cccc(C(=O)/C=C/c2cc3ccccc3n(Cc3cn(-c4ccc(F)cc4)nn3)c2=O)c1 [Compound 48]	220 to 222 °C	7 µM	1.6 µM	≥ 8	≥ 37	≥ 60 µM	
O=C(/C=C/c1cc2ccccc2n(Cc2cn(-c3ccc(Cl)cc3)nn2)c1=O)c1ccccc1F [Compound 50]	242 to 244 °C	4.7 µM	0.9 µM	≥ 10	≥ 55	≥ 50 µM	
O=C(/C=C/c1cc2ccccc2n(Cc2cn(-c3ccc(Cl)cc3)nn2)c1=O)c1cccc(F)c1 [Compound 51]	190 to 192 °C	10 µM	0.9 µM	≥ 10	≥ 111	≥ 100 µM	
COc1ccccc1C(=O)/C=C/c1cc2ccccc2n(Cc2cn(-c3ccc(Cl)cc3)nn2)c1=O [Compound 56]	230 to 232 °C	3.2 µM	0.6 µM	2.6	14	8.4 µM	
COc1cccc(C(=O)/C=C/c2cc3ccccc3n(Cc3cn(-c4ccc(Cl)cc4)nn3)c2=O)c1 [Compound 57]	215 to 217 °C	6.6 µM	1.1 µM	2.2	11.3	14.7 µM	
COc1ccc(C(=O)/C=C/c2cc3ccccc3n(Cc3cn(-c4ccc(Cl)cc4)nn3)c2=O)cc1 [Compound 58]	210 to 212 °C	≥ 100 µM	≥ 30 µM	≤ 0.2	≤ 0.7	19.7 µM	
